Measurements from patent US20160136130A1, “Oral Ultraviolet Resistance Enhancer” (KAO CORPORATION, priority 2013, published 2016).

Tests used:
[1] = system: IGF-1; settings: applied to the skin; cited from earlier work
[2] = system: MMP13, MMP2, MMP9, MMP14; assay: qRT-PCR of UVB-induced dermal denaturation-related molecule expression in skin; format: in vivo, mouse; settings: 1.0% GDL feed 2 weeks; UVB 40 mJ/cm^2; 24 hours after irradiation
Method: HR-1 hairless mice (female, 8 weeks of age) (Japan SLC, Inc.) were bred in conditions of a temperature of 23±1° C., a humidity of 50±1%, and a lighting time of 7:00 to 19:00, and the mice freely ingested feed and water during the test period. […] After the two-week ingestion term, two sites (an irradiation site and a non-irradiation site) of 1.5 cm×1.0 cm were set in contiguity with each other on the back of the mouse under pentobarbital anesthesia, and irradiation was applied to the irradiation site in a UVB exposure dose of 1 mW/cm^2 for 40 seconds (40 mJ/cm^2). After 24 hours from the irradiation, blood was drawn from a heart, and the skin was taken from the UVB non-irradiation site and the irradiation site, from which RNA was extracted. A gene expression level of the molecule, shown below, was quantified from the extracted RNA according to qRT-PCR. As a TaqMan Gene Expression Assay (Applied Biosystems) probe, which specifically detects a target gene, were used Il-1b (Mm01336189_m1; IL-1b, Il-6 (Mm00446190_m1; IL-6), Gm-csf (Mm01290062_m1; GM-CSF), Tnf (Mm00443258_m1; TNFa), Ptgs2 (Mm01307329_m1; COX-2), Tlr3 (Mm01207404_m1; TLR3), Socs3 (Mm00545913_s1; SOCS3), Vcam1 (Mm01320970_m1; VCAM-1), Icam1 (Mm00516023_m1; ICAM-1), Sele (Mm00441278_m1; E-selectin), Edn1 (Mm00438656_m1; EDN1), Kit1 (Mm00442972_m1; SCF), C-kit (Mm00445212_m1; c-Kit), Lif (Mm00434761_m1; LIF), Fgf2 (Mm00433287_m1; FGF2), Hgf (Mm01135185_m1; HGF), Pcna (Mm00448100_g1; PCNA), Ccnd1 (Mm00432359_m1; CyclinD1), Mmp13 (Mm00439491_m1; MMP13), Mmp2 (Mm00439506_m1; MMP2), Mmp9 (Mm00442991_m1; MMP9), and Mmp14(Mm00485054_m1; MMP14). A target gene expression level was corrected by an expression level of an internal standard gene Rplp0 (Mm01974474_gH; RPLP0). […] The obtained values are expressed as Ave.±S.D., n=10, and as for a statistical significance test between many groups, a multiple comparison test according to Dunnett was performed (*p<0.05, **p<0.01 (vs Cont UVB+). • IL-1β: Interleukin-1β • IL-6: Interleukin-6 • GM-CSF: Granulocyte macrophage colony-stimulating factor • TNFα: Tumor necrosis factor α • COX-2: Cyclooxygenase-2 • TLR3: Toll-like receptor 3 • SOCS3: Suppressor of cytokine signaling 3 • VCAM-1: Vascular cell adhesion molecule-1 • ICAM-1: Intercellular adhesion molecule-1 • E-selectin • EDN1: Endothelin 1 • SCF: Stem cell factor (kit-ligand) • c-Kit • LIF: Leukemia inhibitory factor • FGF2: Fibroblast growth factor 2 (basic) • HGF: Hepatocyte growth factor • PCNA: Proliferating cell nuclear antigen • CyclinD1 • MMP13: Matrix metallopeptidase 13 (Collagenase 3) • MMP2: Matrix metallopeptidase 2 (Gelatinase A) • MMP9: Matrix metallopeptidase 9 (Gelatinase B) • MMP14: Matrix metallopeptidase 14 (membrane-inserted)

[3] = system: PCNA, CyclinD1; assay: qRT-PCR of UVB-induced proliferation-related molecule expression in skin; format: in vivo, mouse; settings: 1.0% GDL feed 2 weeks; UVB 40 mJ/cm^2; 24 hours after irradiation
Method: (§1) HR-1 hairless mice (female, 8 weeks of age) (Japan SLC, Inc.) were bred in conditions of a temperature of 23±1° C., a humidity of 50±1%, and a lighting time of 7:00 to 19:00, and the mice freely ingested feed and water during the test period. […] After the two-week ingestion term, two sites (an irradiation site and a non-irradiation site) of 1.5 cm×1.0 cm were set in contiguity with each other on the back of the mouse under pentobarbital anesthesia, and irradiation was applied to the irradiation site in a UVB exposure dose of 1 mW/cm^2 for 40 seconds (40 mJ/cm^2). After 24 hours from the irradiation, blood was drawn from a heart, and the skin was taken from the UVB non-irradiation site and the irradiation site, from which RNA was extracted. A gene expression level of the molecule, shown below, was quantified from the extracted RNA according to qRT-PCR. […]

[4] = system: HR-1 hairless mice; assay: Ultraviolet-induced erythema (a* value) and epidermal thickness after oral GDL mixed feed; format: in vivo, mouse; settings: UVB 40 mJ/cm^2
Method: HR-1 hairless mice (female, 8 weeks of age) (Japan SLC, Inc.) were bred in conditions of a temperature of 23±1° C., a humidity of 50±1%, and a lighting time of 7:00 to 19:00, and the mice freely ingested feed and water during the test period. […] After the two-week ingestion term, two sites (an irradiation site and a non-irradiation site) of 1.5 cm×1.0 cm were set in contiguity with each other on the back of the mouse under pentobarbital anesthesia, and irradiation was applied to the irradiation site in a UVB exposure dose of 1 mW/cm^2 for 40 seconds (40 mJ/cm^2). A degree of erythema was evaluated after 2 days from the irradiation by a skin color (a*value) measurement using a spectrophotometer SE-6000 (Nippon Denshoku Industries Co., Ltd.). The a*value is an index showing redness of the skin color, and it can be said that the skin turns more red, namely, the more erythema are generated, as the a* value is increased.
After the measurement, blood was drawn from a heart under deep anesthesia, and the skin was taken from the UVB non-irradiation site and the irradiation site. […] As for an epidermal thickness, an average value of epidermal thicknesses at 15 arbitrary points per tissue was defined as the epidermal thickness of the tissue.

[5] = system: HRM-2 hairless mice; assay: Long-term repeated UVB irradiation (20 weeks): pigmentation, stratum corneum function, skin elasticity; format: in vivo, mouse; settings: 2.0% GDL feed
Source text: After a test feed was previously ingested for 3 weeks, UVB irradiation was applied to the UVB irradiation groups once per day over 20 weeks. As an ultraviolet resistance was obtained by continuous irradiation, a UVB irradiation intensity was increased from 40 mJ/cm^2 to 130 mJ/cm^2 in stages (irradiation in 0 to the first week: 40 mJ/cm^2, irradiation in the second to the forth weeks: 54 mJ/cm^2, irradiation in the fifth to the seventh weeks: 72 mJ/cm^2, irradiation in the eighth to the twelfth weeks: 108 mJ/cm^2, irradiation in the thirteenth to the fourteenth weeks: 120 mJ/cm^2, irradiation in the fifteenth to twentieth weeks: 130 mJ/cm^2). During the UVB irradiation term, the test feed was ingested. At the time of the grouping, and the irradiation 0th, 4th, 8th, 12th, 16th, and 20th weeks, the measurements of L*values using a spectrophotometer, TEWL values using a Tewameter, and stratum corneum moisture contents (the Capacitance value) using a Corneometer were performed. At the irradiation 20th week, skin physical parameters were measured using a Cutometer. The obtained values are expressed as Ave.±S.D., n=10-11, and the multiple comparison test was performed according to Tukey-Kramer.

[6] = system: VCAM-1, ICAM-1, E-selectin; assay: qRT-PCR of UVB-induced adhesion molecule expression in skin; format: in vivo, mouse; settings: 1.0% GDL feed 2 weeks; UVB 40 mJ/cm^2; 24 hours after irradiation
Method: as §1

[7] = system: healthy males; assay: Human crossover test, capsule including glucono-δ-lactone: MED, erythema, pigmentation after UVB; format: in vivo; settings: 2000 mg glucono-δ-lactone per day orally
Method: A 4-week ingestion interval was provided between the first half and the last half of the crossover test. Glucono-δ-lactone, which is a test product, is a food additive (Fuso Chemical Co., Ltd.), and the intake was divided into twice a day for ingestion. After a 3-week ingestion term, irradiation was applied to an upper arm inside part with a UVB intensity of 1 mW/cm^2 for 7 different time periods, each at different sites (an irradiation area of 0.6 cm×1.0 cm per site). After 24 hours from the UVB irradiation, an MED value (the minimum erythema dose) was visually evaluated.
After the 3-week ingestion term, irradiationwith a radiation dose corresponding to 2 MED was applied to an area of 1.5 cm×1.5 cm on the upper arm inside part with a UVB intensity of 1 mW/cm^2. After 24 hours from the UVB irradiation, a ΔAa*value (erythema intensity: a difference from that in the non-irradiation site) was measured using a spectrophotometer. Further, after one week from the UVB irradiation, a ΔL*value (degree of pigmentation: a difference from that in the non-irradiation site) in each irradiation site wasmeasuredusing the spectrophotometer. The obtained values are expressed as Ave.±S.D., n=10, and as for a statistical significance test between the two groups, a paired t-test was performed (*p<0.05, **p<0.01).

[8] = system: IL-1β, IL-6, GM-CSF, TNFα, COX-2, TLR3, SOCS3; assay: qRT-PCR of UVB-induced inflammation-related gene expression in skin; format: in vivo, mouse; settings: 1.0% GDL feed 2 weeks; UVB 40 mJ/cm^2; 24 hours after irradiation; corrected by Rplp0
Method: (§2) HR-1 hairless mice (female, 8 weeks of age) (Japan SLC, Inc.) were bred in conditions of a temperature of 23±1° C., a humidity of 50±1%, and a lighting time of 7:00 to 19:00, and the mice freely ingested feed and water during the test period. […] After the two-week ingestion term, two sites (an irradiation site and a non-irradiation site) of 1.5 cm×1.0 cm were set in contiguity with each other on the back of the mouse under pentobarbital anesthesia, and irradiation was applied to the irradiation site in a UVB exposure dose of 1 mW/cm^2 for 40 seconds (40 mJ/cm^2). After 24 hours from the irradiation, blood was drawn from a heart, and the skin was taken from the UVB non-irradiation site and the irradiation site, from which RNA was extracted. A gene expression level of the molecule, shown below, was quantified from the extracted RNA according to qRT-PCR. As a TaqMan Gene Expression Assay (Applied Biosystems) probe, which specifically detects a target gene, were used Il-1b (Mm01336189_m1; IL-1b, Il-6 (Mm00446190_m1; IL-6), Gm-csf (Mm01290062_m1; GM-CSF), Tnf (Mm00443258_m1; TNFa), Ptgs2 (Mm01307329_m1; COX-2), Tlr3 (Mm01207404_m1; TLR3), Socs3 (Mm00545913_s1; SOCS3), Vcam1 (Mm01320970_m1; VCAM-1), Icam1 (Mm00516023_m1; ICAM-1), Sele (Mm00441278_m1; E-selectin), Edn1 (Mm00438656_m1; EDN1), Kit1 (Mm00442972_m1; SCF), C-kit (Mm00445212_m1; c-Kit), Lif (Mm00434761_m1; LIF), Fgf2 (Mm00433287_m1; FGF2), Hgf (Mm01135185_m1; HGF), Pcna (Mm00448100_g1; PCNA), Ccnd1 (Mm00432359_m1; CyclinD1), Mmp13 (Mm00439491_m1; MMP13), Mmp2 (Mm00439506_m1; MMP2), Mmp9 (Mm00442991_m1; MMP9), and Mmp14(Mm00485054_m1; MMP14). A target gene expression level was corrected by an expression level of an internal standard gene Rplp0 (Mm01974474_gH; RPLP0). An analysis was performed using 7500 Fast Real-Time PCR System (Applied Biosystems). The obtained values are expressed as Ave.±S.D., n=10, and as for a statistical significance test between many groups, a multiple comparison test according to Dunnett was performed (*p<0.05, **p<0.01 (vs Cont UVB+). • IL-1β: Interleukin-1β • IL-6: Interleukin-6 • GM-CSF: Granulocyte macrophage colony-stimulating factor • TNFα: Tumor necrosis factor α • COX-2: Cyclooxygenase-2 • TLR3: Toll-like receptor 3 • SOCS3: Suppressor of cytokine signaling 3 • VCAM-1: Vascular cell adhesion molecule-1 • ICAM-1: Intercellular adhesion molecule-1 • E-selectin • EDN1: Endothelin 1 • SCF: Stem cell factor (kit-ligand) • c-Kit • LIF: Leukemia inhibitory factor • FGF2: Fibroblast growth factor 2 (basic) • HGF: Hepatocyte growth factor • PCNA: Proliferating cell nuclear antigen • CyclinD1 • MMP13: Matrix metallopeptidase 13 (Collagenase 3) • MMP2: Matrix metallopeptidase 2 (Gelatinase A) • MMP9: Matrix metallopeptidase 9 (Gelatinase B) • MMP14: Matrix metallopeptidase 14 (membrane-inserted)

[9] = system: EDN1, c-Kit, LIF, FGF2, HGF; assay: qRT-PCR of UVB-induced melanin synthesis-related molecule expression in skin; format: in vivo, mouse; settings: 1.0% GDL feed 2 weeks; UVB 40 mJ/cm^2; 24 hours after irradiation
Method: as §2

[10] = UVB once per day, 40 to 130 mJ/cm^2, after the UV irradiation 8th week or 12th week

O=C(O)[C@H](O)[C@@H](O)[C@H](O)[C@H](O)CO [gluconic acid]
IGF-1 secretion [1]: promoted

O=C1O[C@H](CO)[C@@H](O)[C@H](O)[C@H]1O [GDL, Glucono-δ-lactone]
collagenase (MMP13) expression [2]: suppressed | gelatinase MMP2 expression [2]: suppressed | gelatinase MMP9 expression [2]: suppressed | membrane-associated MMP (MMP14) expression [2]: suppressed | CyclinD1 expression [3]: suppressed | PCNA expression [3]: suppressed | increase of a*values due to the UVB irradiation (erythema) ([4]; 0.5% and 1% GDL mixed feed for 2 weeks, 2 days after irradiation): concentration-dependently suppressed | a* value in the irradiation sites compared to the irradiation sites in the control group ([4]; 1% GDL group, feed for 2 weeks, 2 days after irradiation): significant suppression | increase of epidermal thickness in the irradiation sites compared to control group ([4]; GDL groups (0.5%, 1%), feed for 2 weeks, HE stain): significantly suppressed | reduction of the skin viscoelasticity (Uv/Ue) ([5]; UVB once per day over 20 weeks, Cutometer at irradiation 20th week): suppressed | decrease of L*value caused by the UVB irradiation (pigmentation) [5, 10]: suppressed | decrease of stratum corneum moisture content (the Capacitance value) caused by the UVB irradiation [5, 10]: suppressed | ICAM-1 expression [6]: suppressed | VCAM-1 expression [6]: suppressed | Δa*values (erythema intensity) compared to the placebo group ([7]; 2 MED UVB, after 24 hours from the UVB irradiation): significantly decreased | AL* values (degree of pigmentation) compared to the placebo group ([7]; 2 MED UVB, after one week from the UVB irradiation): significantly decreased | MED values (minimum erythema dose) compared to the placebo group ([7]; after 3-week ingestion, 24 hours after UVB, upper arm inside): significantly high | COX-2 gene expression in irradiation sites vs control [8]: significantly suppressed | GM-CSF gene expression in irradiation sites vs control [8]: significantly suppressed | IL-1β gene expression in irradiation sites vs control [8]: significantly suppressed | IL-6 gene expression in irradiation sites vs control [8]: significantly suppressed | SOCS3 gene expression in irradiation sites vs control [8]: significantly suppressed | TLR3 gene expression in irradiation sites vs control [8]: significantly suppressed | TNFα gene expression in irradiation sites vs control [8]: significantly suppressed | EDN1 expression [9]: significantly reduced | FGF2 expression [9]: significantly reduced | HGF expression [9]: significantly reduced | LIF expression [9]: significantly reduced | c-Kit expression [9]: significantly reduced
